Experimental findings from paper PMC12867150, “A fungi-derived cyclic peptide enhances Th9-mediated antitumor immunity by targeting ZAP70 and SREBP1” (The Journal of Clinical Investigation, 2025) are described below.

One data set relates to IL-6. Description: Serum IL-6 by ELISA after ACT (S1B). The data set is classed as in vivo, mouse. The following applies: for IL-6 of blood from mouse: Supplemental Figure 1B. As for the experimental part: Peripheral blood was collected from mouse tail veins at predefined time points in the tumor model. Samples were allowed to clot at 4°C for 1 hour and were then centrifuged at 600g for 25 minutes to obtain serum. Serum IL-6 levels were measured using an ELISA kit (Invitrogen; catalog 88-7064) according to the manufacturer’s instructions.
Days after ACT Days after ACT
Figure S1. EpA enhances immune responses. […]
Serum IL-6 levels after ACT, measured by ELISA on days 5, 10, 15, and 20. (C–E) […]
Statistical analysis was performed using two-way ANOVA with Tukey’s post hoc test (A), one-way ANOVA with Tukey’s post hoc test (B) or two-tailed unpaired Student’s t-test (D and G–M). ns, not significant. *p < 0.05, **p < 0.01, ****p < 0.0001.
(also on this page, place not known: Mouse weight (g) CtrlEpA CtrlEpA CtrlEpA0 I CD45.1+ T cells (%) CtrlEpA CD4+ T cells (%) CtrlEpA CtrlEpA CtrlEpA FSC CD8 CD8 FSC FSC FSC BNumber of CD45.1+ T cells (×103 per mgĎ Number of CD4+ T cells (×104 per mgĎ DC (%)NK cells (%) NK cells (%) DC (%) Number of DC (×103 per mg) Number of NK cells (×105) Number of NK cells (×103 per mg) Number of DC (×105) FSC FSC FSC CD8 CtrlEpA CtrlEpA CtrlEpA CD8+ T cells (%) Number of CD8+ T cells (×104 per mgĎ nsns ns nsns ns 40 IL-6 (pg/ml))
(ELISA stands for enzyme-linked immunosorbent assay.)

The subject of another data set is MEK1/2 and ERK1/2. Put plainly: Immunoblot of total and phosphorylated MEK1/2 and ERK1/2 (Figure 5G). The data set is classed as cell-based, mouse. The following applies: result in words. The procedure: Detailed lysis conditions, SDS–PAGE and transfer procedures, primary/secondary antibodies (including clones and catalog numbers), molecular weight markers, ECL detection, and ImageJ (NIH) quantification are described in Supplemental Methods.
(§1) MH9A4, Biolegend, Cat. No. 507605, PE/Cy7, clone MH9A4, Biolegend, Cat. No. […]
(§2) clone Mab11, Biolegend, Cat. No. 502908), Perforin (APC, clone dG9, Biolegend, Cat.
(§3) Flow cytometric acquisition was performed using a BD Fortessa or Cytek Aurora cytometer. Data were analyzed with FlowJo software (v10.8.1 or newer). Fluorescence compensation, isotype-matched controls, and fluorescence-minus-one (FMO) controls were applied as appropriate for multicolor panel validation.
Cells were washed twice with PBS and lysed in 1 × lysis buffer (NCM, Cat. No.
WB3100) supplemented with a protease inhibitor cocktail (Solarbio, Cat. No. P1260).
Protein lysates were separated by SDS-polyacrylamide gel electrophoresis (SDS-PA G E ; YEASEN, Cat. No. 20325ES62) and transferred to PVDF membranes for […]
Membranes were probed with the following primary antibodies: ERK1/2 (clone […]
BioLegend, Cat. No. 369502), MEK1/2 (clone L38C12, Cell Signaling Technology, Cat.
No. 4694S), phospho -MEK1/2 (clone 41G9, Cell Signaling Technology, Cat. No. […]
(Proteintech, Cat. No. 10745 -1-AP), Total Akt (Cell Signaling Technolo gy, Cat. No. […]
On the technique in general: A western blot detects proteins with antibodies after separation by electrophoresis.

A further data set concerns IL9, IRF4, and SPI1 mRNA. Put plainly: Quantitative PCR of IL9, IRF4 and SPI1 in human Th9 cells (Figure 8C). The data set is classed as cell-based. The following applies: result in words. The procedure: (§4) For Th9 polarization, cultures were supplemented with IL-4 (10 ng/mL, PeproTech, catalog AF-200-04), TGF-β (1 ng/mL), and neutralizing anti–IFN-γ monoclonal antibody (10 μg/mL, clone B27, BioXcell, catalog BE0245). After 3 days of initial culture, cells were either collected for downstream assays or continued in extended culture with refreshed cytokines to maintain lineage commitment without antibodies. Th9 cells were collected at days 4, 5, and 6 for subsequent in vitro assays. For adoptive transfer studies, day 4–cultured Th9 cells were washed and prepared for intravenous injection.
Total RNA was extracted from T cells using RNAex Pro Reagent (AG, catalog AG21102) following the manufacturer’s instructions. First-strand complementary DNA (cDNA) was synthesized using the Hifair III 1st Strand cDNA Synthesis SuperMix (YEASEN, catalog 11137ES10). Quantitative real-time PCR (qRT-PCR) was conducted on a QuantStudio 3 Real-Time PCR System (Thermo Fisher Scientific) using ChamQ Universal SYBR qPCR Master Mix (Vazyme, catalog Q711-02) and gene-specific primers (Tsingke Biotech).
For normalization, mouse samples were referenced to Gapdh or Actb, and human samples were normalized to GAPDH. Relative gene expression was calculated using the ΔΔCt method. Primer sequences are listed in Supplemental Table 5.

For another data set, the system named is phosphorylated ZAP70. Put plainly: Flow cytometry of phosphorylated ZAP70 in human Th9 cells (Figure 8F). The data set is classed as cell-based. Conditions: result in words. As for the experimental part: as §4
Details regarding staining panels (human and mouse), reagents (including clones and catalog numbers), acquisition settings, compensation/controls, and analysis procedures are provided in Supplemental Methods.
as §1, §2, §3
Cells were washed twice with PBS and lysed in 1 × lysis buffer (NCM, Cat. No. […]

Procedure for Raji lymphoma cells: For infection, human T cells were activated for 40 hours with plate-bound anti-CD3 (BioLegend, clone OKT3, 5 μg/mL) and soluble anti-CD28 antibodies (BioLegend, clone CD28.2, 2 μg/mL) antibodies and then resuspended in viral supernatant (MOI = 5) supplemented with recombinant human IL-2 (100 U/mL) and polybrene (10 μg/mL). The cell-virus mixture was subjected to spinoculation at 550g for 2 hours at room temperature, followed by incubation for 24 hours. Transduced CAR T cells were harvested on days 5 or 7 after activation for downstream functional assays.
The cytotoxic activity of CD19-targeting CAR T cells was evaluated using a luciferase-based bioluminescence assay. Raji cells stably expressing firefly luciferase (ffLuc) were resuspended in RPMI 1640 medium supplemented with 10% FBS and seeded into 24-well plates. CAR T cells were added at various effector-to-target (E:T) ratios, while tumor-only wells were included as negative controls. After 20 hours of coculture, 20,000 cells from each tumor-only control well were harvested, washed with PBS, resuspended in 100 μL of lysis buffer, and transferred to a black 96-well plate. Luminescence intensity was measured using a multimode plate reader, and the percentage of specific lysis was calculated as follows: % Cytotoxicity = 1 – (luminescence of coculture well/luminescence of tumor-only control well).

anteiso-C15 Leu7 surfactin [EpA]: the “IL-6 of blood from mouse” value in the data set on IL-6 (Day5, replicate 1) was found to be 26.4444 pg/mL; in the data set with IL-6 (Day5, replicate 2) it was 18 pg/mL; with IL-6 (Day5, replicate 3), 22.6667 pg/mL; with IL-6 (Day5, replicate 4), 28 pg/mL; with IL-6 (Day10, replicate 1), 22.6667 pg/mL; in the data set on IL-6 (Day10, replicate 2), 21.3333 pg/mL. For the same substance, the “IL-6 of blood from mouse” value was 24.2222 pg/mL in the data set on IL-6 (Day10, replicate 3); 22 pg/mL in the data set on IL-6 (Day10, replicate 4); 19.5556 pg/mL with IL-6 (Day15, replicate 1); 16 pg/mL in the data set with IL-6 (Day15, replicate 2); 11.3333 pg/mL in the data set with IL-6 (Day15, replicate 3); 20 pg/mL in the data set with IL-6 (Day15, replicate 4). The “IL-6 of blood from mouse” value in the data set on IL-6 (Day20, replicate 1) amounted to 21.7778 pg/mL; with IL-6 (Day20, replicate 2), 14.8889 pg/mL; in the data set on IL-6 (Day20, replicate 3) it was 14.4445 pg/mL; in the data set with IL-6 (Day20, replicate 4), 26.8889 pg/mL. The “serum IL-6 levels” value in the data set with IL-6 (EpA-Th9 therapy vs control, result in words) is listed as “No significant differences”. In addition, the “MEK and ERK phosphorylation” value in the data set with MEK1/2 and ERK1/2 was “increased phosphorylation of MEK and ERK”. Moreover, the “IL9, IRF4, SPI1 mRNA” value in the data set on IL9, IRF4, and SPI1 mRNA was “upregulated”. For the same substance, the “ZAP70 phosphorylation, human Th9” value with phosphorylated ZAP70 is reported as “increased phosphorylation of ZAP70”. Moreover, in the data set on Raji lymphoma cells, the “cytotoxicity against Raji cells” value was “significantly greater cytotoxicity”.
